Measured values taken from ChEMBL document CHEMBL1201862, “PubChem BioAssay data set” (2004).
Values belong to the compound of their own block, whether it stands above or below them. The source made the active and inactive calls.

How the values were obtained:
[1] = molecular target: T1, Calpain-2 catalytic subunit (Sus scrofa, UniProt P43367); test: pig calpain II inhibitor potency, dose response, biochemical, fluorogenic peptide substrate (AID 1420); assay type: functional
T1 sequence (P43367 whole entry): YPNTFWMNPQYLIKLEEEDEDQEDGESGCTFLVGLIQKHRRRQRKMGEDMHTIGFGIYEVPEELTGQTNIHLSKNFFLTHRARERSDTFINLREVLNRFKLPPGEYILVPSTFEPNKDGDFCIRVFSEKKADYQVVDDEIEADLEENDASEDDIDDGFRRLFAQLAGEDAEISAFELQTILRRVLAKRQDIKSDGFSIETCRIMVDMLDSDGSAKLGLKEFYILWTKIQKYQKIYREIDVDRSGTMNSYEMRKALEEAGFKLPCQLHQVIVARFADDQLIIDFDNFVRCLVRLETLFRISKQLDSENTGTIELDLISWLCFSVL

Ephrin type-A receptor 4 = Ephrin type-A receptor 4 (Mus musculus, UniProt Q03137); test: inhibitors of EphA4 binding to KYL peptide, primary screen, biochemical, colorimetric, mouse EphA4 (AID 689); assay type: functional
[2] = Vero cell cytotoxicity, dose response, cytotoxicity control for Vif-APOBEC3G degradation inhibitor project, Vero cells (AID 1117358); assay type: functional; conditions: Human immunodeficiency virus 1, Vero
[3] = molecular target: T2, Polyadenylate-binding protein 1 (Homo sapiens, UniProt P11940); test: PABP1 MLLE–PAM2 interaction inhibitors, dose response, miRNA deadenylation inhibitor project, biochemical, fluorescence polarization, Cy5-PAM2 peptide, secondary (AID 602260); assay type: functional; conditions: read-out: IC50_Mean
[4] = molecular target: T2, Polyadenylate-binding protein 1; test: PABP1 MLLE–PAM2 binding inhibitor potency, dose response, biochemical, fluorescence polarization, FITC-PAM2 peptide (AID 602259); assay type: functional; conditions: read-out: IC50_Mean
Genome polyprotein = Genome polyprotein (dengue virus type 2, UniProt P29990); test: Dengue-2 NS5 methyltransferase inhibitors, primary screen, biochemical, confirmation dose response (AID 588689); assay type: functional
Caspase-6 = Caspase-6 (Homo sapiens, UniProt P55212); test: human caspase-6 inhibitors, dose response, biochemical, VEID-R110 fluorescence, cherry-pick (AID 720632)
[5] = Counterscreen for inhibitors of Trypanosoma brucei methionyl tRNA synthetase (MetRS): Luminescence-based cell-based high throughput dose response assay to identify compounds that are cytotoxic to Jurkat human T lymphocyte cells.; assay type: functional
[6] = molecular target: T3, Methionyl-tRNA synthetase, putative (Trypanosoma brucei brucei, UniProt Q38C91); assay type: functional, Trypanosoma brucei brucei strain 927/4 GUTat10.1
T3 sequence (Q38C91 whole entry): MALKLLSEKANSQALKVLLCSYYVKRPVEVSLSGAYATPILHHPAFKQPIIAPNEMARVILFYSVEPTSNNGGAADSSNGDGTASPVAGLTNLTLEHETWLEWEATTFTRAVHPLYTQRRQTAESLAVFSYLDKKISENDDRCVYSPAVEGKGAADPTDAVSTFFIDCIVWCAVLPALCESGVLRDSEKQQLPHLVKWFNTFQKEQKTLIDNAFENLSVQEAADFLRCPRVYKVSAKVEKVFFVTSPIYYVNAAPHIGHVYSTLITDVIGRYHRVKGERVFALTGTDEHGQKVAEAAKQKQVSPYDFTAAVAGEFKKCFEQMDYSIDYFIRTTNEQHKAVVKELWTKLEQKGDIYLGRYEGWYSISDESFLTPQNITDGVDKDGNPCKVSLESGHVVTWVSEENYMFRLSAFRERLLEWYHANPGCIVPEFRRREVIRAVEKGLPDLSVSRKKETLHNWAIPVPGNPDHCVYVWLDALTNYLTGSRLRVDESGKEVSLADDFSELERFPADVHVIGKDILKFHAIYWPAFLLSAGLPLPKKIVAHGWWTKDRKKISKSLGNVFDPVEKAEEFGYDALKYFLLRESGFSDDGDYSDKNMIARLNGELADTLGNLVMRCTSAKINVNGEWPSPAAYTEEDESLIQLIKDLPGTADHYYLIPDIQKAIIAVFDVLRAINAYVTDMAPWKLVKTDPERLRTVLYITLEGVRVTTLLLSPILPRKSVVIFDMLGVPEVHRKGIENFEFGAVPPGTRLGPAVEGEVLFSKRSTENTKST

[7] = Late stage counterscreen for inhibitors of Trypanosoma brucei methionyl tRNA synthetase (MetRS): Luminescence-based cell-based high throughput dose response assay to identify compounds that are cytotoxic to Jurkat human T lymphocyte cells.; assay type: functional
[8] = molecular target: T3, Methionyl-tRNA synthetase, putative; assay type: functional, Trypanosoma brucei brucei strain 927/4 GUTat10.1; remark: listed apart in the source
[9] = molecular target: T4, NAD-dependent protein deacylase sirtuin-5, mitochondrial (Homo sapiens, UniProt Q9NXA8); test: SIRT5 desuccinylase inhibitors, dose response, biochemical, fluorescence imaging, cherry-pick, set 5 (AID 720591);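 note: desuccinylation of succinyl peptide AMC substrate read as fluorescence after trypsin release; potency of inhibitors that lower fluorescence and may act on trypsin instead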
[10] = molecular target: T4, NAD-dependent protein deacylase sirtuin-5, mitochondrial; test: SIRT5 deacylase inhibitors, dose response, biochemical, fluorescence imaging, cherry-pick, set 6 (AID 720597)
[11] = molecular target: T5, Tyrosine-protein phosphatase non-receptor type 7 (Homo sapiens, UniProt P35236); test: inhibitors of human HePTP phosphatase, […], biochemical, absorbance, leukemia target (AID 521); assay type: functional
T5 sequence (P35236 whole entry): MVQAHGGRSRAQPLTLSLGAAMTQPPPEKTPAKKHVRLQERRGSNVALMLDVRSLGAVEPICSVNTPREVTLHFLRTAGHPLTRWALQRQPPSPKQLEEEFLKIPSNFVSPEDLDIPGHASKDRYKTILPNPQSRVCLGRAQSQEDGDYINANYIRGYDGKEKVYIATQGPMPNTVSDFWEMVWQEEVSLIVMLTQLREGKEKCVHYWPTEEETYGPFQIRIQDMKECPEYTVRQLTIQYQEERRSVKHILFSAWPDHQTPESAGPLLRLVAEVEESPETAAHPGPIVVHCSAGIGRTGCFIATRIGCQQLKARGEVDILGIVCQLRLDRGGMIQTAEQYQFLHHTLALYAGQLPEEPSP

Bcl-2-like protein 10 = molecular target: T6, Bcl-2-like protein 10 (Homo sapiens, UniProt Q9HD36); test: displacers of TR3 peptide from Bcl-B, primary screen, selectivity assay for Bfl-1 inhibitor project, biochemical, fluorescence polarization, FITC-TR3 peptide (AID 748);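 note: fluorescence polarization from a fluorescein-labelled TR3 peptide binding purified Bcl-B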
T6 sequence (Q9HD36 whole entry): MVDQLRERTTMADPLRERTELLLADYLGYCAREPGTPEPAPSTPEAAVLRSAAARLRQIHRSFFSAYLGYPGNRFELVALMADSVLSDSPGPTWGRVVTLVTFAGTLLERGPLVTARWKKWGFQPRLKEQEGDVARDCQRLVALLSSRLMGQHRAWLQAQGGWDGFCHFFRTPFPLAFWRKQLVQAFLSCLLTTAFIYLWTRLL

T4 sequence (Q9NXA8 whole entry): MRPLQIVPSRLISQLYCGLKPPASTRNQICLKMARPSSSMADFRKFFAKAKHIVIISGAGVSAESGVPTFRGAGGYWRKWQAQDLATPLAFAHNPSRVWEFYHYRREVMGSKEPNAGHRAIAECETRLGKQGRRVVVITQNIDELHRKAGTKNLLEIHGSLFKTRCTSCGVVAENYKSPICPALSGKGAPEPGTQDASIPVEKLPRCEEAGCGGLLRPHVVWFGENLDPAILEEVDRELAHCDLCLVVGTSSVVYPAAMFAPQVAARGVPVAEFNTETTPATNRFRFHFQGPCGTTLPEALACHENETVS
T2 sequence (P11940 whole entry): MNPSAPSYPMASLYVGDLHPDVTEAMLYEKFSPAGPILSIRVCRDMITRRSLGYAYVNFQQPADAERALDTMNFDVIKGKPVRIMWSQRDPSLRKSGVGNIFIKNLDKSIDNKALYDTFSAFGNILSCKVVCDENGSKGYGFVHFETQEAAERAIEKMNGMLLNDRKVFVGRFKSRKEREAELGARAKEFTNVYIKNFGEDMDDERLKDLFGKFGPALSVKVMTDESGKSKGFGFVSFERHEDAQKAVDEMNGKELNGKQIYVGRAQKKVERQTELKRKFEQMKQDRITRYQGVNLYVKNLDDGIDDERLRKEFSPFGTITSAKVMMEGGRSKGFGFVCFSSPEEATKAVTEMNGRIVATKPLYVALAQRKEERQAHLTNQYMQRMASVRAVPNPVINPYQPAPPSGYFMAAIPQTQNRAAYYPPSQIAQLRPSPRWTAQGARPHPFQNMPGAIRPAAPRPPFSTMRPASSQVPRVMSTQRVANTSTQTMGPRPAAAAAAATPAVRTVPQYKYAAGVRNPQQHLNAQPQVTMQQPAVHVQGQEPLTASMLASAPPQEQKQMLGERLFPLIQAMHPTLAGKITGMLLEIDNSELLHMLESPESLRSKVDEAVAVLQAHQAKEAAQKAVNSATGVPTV
Chain of Ephrin type-A receptor 4 (Q03137 whole entry): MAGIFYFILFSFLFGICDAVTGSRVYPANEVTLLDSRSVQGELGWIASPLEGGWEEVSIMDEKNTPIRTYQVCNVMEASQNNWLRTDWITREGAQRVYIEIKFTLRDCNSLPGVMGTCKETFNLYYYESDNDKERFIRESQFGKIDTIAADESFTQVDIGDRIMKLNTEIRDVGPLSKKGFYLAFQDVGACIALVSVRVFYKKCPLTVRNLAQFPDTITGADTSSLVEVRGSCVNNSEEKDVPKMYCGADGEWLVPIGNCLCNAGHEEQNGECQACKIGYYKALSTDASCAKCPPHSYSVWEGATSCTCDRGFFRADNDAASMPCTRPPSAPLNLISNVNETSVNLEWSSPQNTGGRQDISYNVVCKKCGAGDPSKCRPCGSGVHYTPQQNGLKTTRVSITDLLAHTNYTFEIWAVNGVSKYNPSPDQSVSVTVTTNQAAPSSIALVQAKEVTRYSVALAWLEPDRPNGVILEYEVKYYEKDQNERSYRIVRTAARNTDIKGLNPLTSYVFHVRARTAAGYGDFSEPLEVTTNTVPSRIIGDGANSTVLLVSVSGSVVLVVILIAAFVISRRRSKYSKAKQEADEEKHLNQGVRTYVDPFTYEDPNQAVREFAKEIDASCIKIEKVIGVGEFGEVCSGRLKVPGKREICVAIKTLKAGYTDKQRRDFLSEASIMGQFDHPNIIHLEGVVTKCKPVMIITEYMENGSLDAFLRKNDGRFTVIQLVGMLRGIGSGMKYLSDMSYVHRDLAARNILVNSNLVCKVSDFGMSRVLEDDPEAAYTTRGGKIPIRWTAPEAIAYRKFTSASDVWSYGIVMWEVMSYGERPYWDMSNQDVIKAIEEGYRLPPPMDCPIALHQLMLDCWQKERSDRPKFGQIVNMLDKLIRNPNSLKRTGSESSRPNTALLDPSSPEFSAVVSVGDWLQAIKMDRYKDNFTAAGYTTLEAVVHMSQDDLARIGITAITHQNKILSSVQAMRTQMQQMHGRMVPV
Chain of Caspase-6 (P55212 24-179 limits assumed): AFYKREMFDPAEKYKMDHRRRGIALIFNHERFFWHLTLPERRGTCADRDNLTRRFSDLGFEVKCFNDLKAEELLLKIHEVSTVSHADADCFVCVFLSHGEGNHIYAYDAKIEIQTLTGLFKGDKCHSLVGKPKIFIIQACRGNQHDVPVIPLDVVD
Chain of Caspase-6 (P55212 194-293 limits assumed): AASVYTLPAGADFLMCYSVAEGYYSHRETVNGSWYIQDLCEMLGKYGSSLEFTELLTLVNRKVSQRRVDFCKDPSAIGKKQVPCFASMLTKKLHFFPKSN
Chain of Genome polyprotein (P29990 2492-3391 limits assumed): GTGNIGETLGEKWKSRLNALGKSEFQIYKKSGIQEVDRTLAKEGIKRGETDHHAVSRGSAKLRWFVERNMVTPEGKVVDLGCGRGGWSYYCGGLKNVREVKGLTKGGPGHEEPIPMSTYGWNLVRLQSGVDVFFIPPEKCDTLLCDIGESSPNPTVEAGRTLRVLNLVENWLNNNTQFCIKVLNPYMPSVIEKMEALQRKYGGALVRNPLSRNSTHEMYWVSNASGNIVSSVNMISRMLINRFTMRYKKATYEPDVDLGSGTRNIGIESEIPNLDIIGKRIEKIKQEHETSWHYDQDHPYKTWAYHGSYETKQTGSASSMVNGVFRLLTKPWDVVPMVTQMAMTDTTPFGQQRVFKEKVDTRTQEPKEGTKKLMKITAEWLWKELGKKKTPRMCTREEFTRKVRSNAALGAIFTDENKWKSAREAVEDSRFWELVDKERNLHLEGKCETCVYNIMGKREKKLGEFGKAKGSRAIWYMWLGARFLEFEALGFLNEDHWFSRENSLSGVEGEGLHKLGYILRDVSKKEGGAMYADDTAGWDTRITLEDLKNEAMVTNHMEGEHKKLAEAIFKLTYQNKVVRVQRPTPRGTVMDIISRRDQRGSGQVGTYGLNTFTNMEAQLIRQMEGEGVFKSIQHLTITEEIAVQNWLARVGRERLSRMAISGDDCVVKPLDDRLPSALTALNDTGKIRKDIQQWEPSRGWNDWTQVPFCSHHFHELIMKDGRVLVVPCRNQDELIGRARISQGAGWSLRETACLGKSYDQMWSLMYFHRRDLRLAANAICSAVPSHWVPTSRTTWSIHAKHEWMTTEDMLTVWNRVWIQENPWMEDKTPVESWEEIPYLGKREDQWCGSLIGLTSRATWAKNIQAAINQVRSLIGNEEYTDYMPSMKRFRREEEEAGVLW

IC50 [1]: 11 µM (not active)
IC50 (Ephrin type-A receptor 4): > 100 µM (not active)
SMILES: COc1ccc(N(C(=O)c2ccco2)S(=O)(=O)c2cc(Cl)c(Cl)cc2Cl)cc1
CC50 [2]: > 40 µM (active)

IC50 [3]: > 66 µM (inactive)
IC50 [4]: > 66 µM (inactive)
IC50 (Genome polyprotein): 7.79 µM (active)
AC50 (Caspase-6): 13.4 µM (active)
SMILES: O=[N+]([O-])c1cc2ccccc2c(O)c1O

SMILES: COc1ccccc1-n1c(SCC(=O)Nc2ccc(Cl)cc2)nc(=O)c(Cc2ccccc2)c1O
IC50 [5]: 74.5 µM (inactive)
IC50 [6]: 5.59 µM (active)
IC50 [7]: 77.1 µM (inactive)
IC50 [8]: 5.07 µM (active)

AC50 [9]: 25.1 µM (active)
SMILES: O=C(O)C1=C2C(=O)Nc3cccc(c32)C2(C1)C(=O)Nc1ccccc12 (stereo unspecified)

AC50 [10]: > 30 µM (inactive)
SMILES: Cc1ccc(S(=O)(=O)Nc2ccc3c(c2)C(=O)N([C@@H](C)CO)C[C@@H](C)[C@H](CN(C)S(=O)(=O)c2ccc(F)cc2)OCCCC[C@@H](C)O3)cc1

AC50 [10]: > 30 µM (inactive)
SMILES: O=C(c1ccccc1F)N1C[C@H]2[C@@H](c3ccccc31)[C@@H](CO)N2CC1CCCCC1

IC50 [11]: 30.2 µM (active)
IC50 (Bcl-2-like protein 10): 17.2 µM (active)
SMILES: C/C(N)=C(/C#N)C(=O)CSc1nnc(Nc2c(C)cccc2C)s1
